In paper PMC12304293, “Combatting virulent gut bacteria by inhibiting the biosynthesis of a two-component lanthipeptide toxin” (Nature Communications, 2025):
Where “and” joins values, the source holds several entries; their conditions need not be identical. Equal entries are not always repeated. Where two headings read alike, the source gives them in different places. Non-standard residues stand in square brackets, D forms with d. Residues, ends and D or L forms follow the SMILES beside them. *: point of attachment. boroGlu = O=C(O)CC[C@H](N*)B(O)O; Gly(cPr) = N[C@H](C(=O)O)C1CC1

How the values were obtained:
[1] = test system: E. faecalis FA2-2 (pAM714), E. faecalis ATCC 29212; format: cell-based, Enterococcus faecalis; conditions: for growth curve reading, ATCC 29212 +9: E. faecalis ATCC 29212 with 9; for growth curve reading, ATCC 29212 +9 / growth curve reading, pAM714 +9: trials 1-3; for growth curve reading, pAM714 +9: E. faecalis pAM714 with 9
Experimental: To a 96-well plate, BHI media was added containing 200 µM of inhibitor 9. An overnight culture of E. faecalis was diluted to a concentration of 10^6 CFU/mL and an equal volume of this culture was added to the well containing inhibitor. A growth control was prepared by combining the diluted bacterial cells with an equal volume of sterile BHI. A sterility control well was filled with sterile BHI to the same volume. The 96-well plate was transferred to a plate reader preheated to 37 °C and the plate was shaken continuously. The OD600 of each well was measured over the course of 24 h. Uncorrected OD600 values were plotted as a function of time. […]
or B) E. faecalis ATCC 29212. Wells containing B HI media were inocul ated with 1 x 106 C F U / m L of E. faecalis .I nhibitor 9 was added to achieve a well concentration of 100 µM. A growth control well not containing 9 an d a sterile control not co ntaining bacteria were s et up on the same plate.
The plate was incubated with shaking at 37 ̊C and the OD600 was measured every 30 min for 18h.
This experiment was conducted on three biological samples (n = 3). Error bars represent the standard of devi ation and are c enter ed at the me an. Source data are p rovided as a Source Data file. […]

[2] = format: in vitro ADME; conditions: 100 µM, 25% human serum, 3 h, 37 °C
Experimental: Similiarly, 9 was diluted to 100 µM in BHI that was inoculated with E. faecalis ATCC 29212 before incubating at 37 °C for 20 h. The overnight culture was flash frozen and lyophilized. The lyophilized samples were extracted with a volume of 90% methanol/10% water that was equal to the volume of the sample prior to lyophilization. The extract was assumed to have a concentration of 100 µM. […]
Human Serum + 9 Human Serum
Log(Concentration (µM)) Log(Concentration(µM))
Supplementary Figure 19. The stability of inhibitor 9 in the pres ence of human serum or C+ E. faecalis. A ) C y l A i nhibition activity of an extract of human s erum treated with 9 (100 μM) for 3 h at 37 ̊C. The resulting solution was used to determine the remaining activity of the inhibitor in a […]
CylA activity assay. […] This experiment was perform ed on three different samples of inhibitor (n = 3). B) CylA inhibition activity of an extract of E. faecalis that was treated with 9 (100 μM) for 20 h at 37 ̊C (+9 +E. faecalis). The resulting solution was used to determine the remaining activity of the inhibitor in a CylA activity assay. An IC50 equal to 36 ± 3 nM was determin ed. Thes e values are higher than the IC50 for a fresh batch of […]
(also on this page, place not known: determined. inhibition CylA These IC 50 presence serum This performed A) Non-linear fitting v i/vo IC 50. […]

CC(=O)NCC(=O)N[C@@H](CC(=O)O)C(=O)N[C@H](C(=O)N[C@@H](CCC(N)=O)C(=O)N[C@@H](C)C(=O)N[C@@H](CCC(=O)O)B(O)O)C1CC1 [Compound 9] (Ac-GD[Gly(cPr)]QA-boroGlu)
growth of C+ E. faecalis ([1]; 100 µM, FA2-2 (pAM714) or ATCC 29212): did not impact the growth | growth curve reading, ATCC 29212 +9 ([1]; time 0 h): 0.1154 and 0.116 and 0.0922 | growth curve reading, ATCC 29212 +9 ([1]; time 0.5 h): 0.0985 and 0.1041 and 0.0924 | growth curve reading, ATCC 29212 +9 ([1]; time 1 h): 0.1003 and 0.1065 and 0.0941 | growth curve reading, ATCC 29212 +9 ([1]; time 4 h): 0.3147 and 0.3334 and 0.308 | growth curve reading, ATCC 29212 +9 ([1]; time 4.5 h): 0.4828 and 0.507 and 0.4713 | growth curve reading, ATCC 29212 +9 ([1]; time 5 h): 0.7061 and 0.7328 and 0.6866 | growth curve reading, ATCC 29212 +9 ([1]; time 6 h): 0.8111 and 0.8333 and 0.7942 | growth curve reading, ATCC 29212 +9 ([1]; time 6.5 h): 0.8209 and 0.8395 and 0.8063 | growth curve reading, ATCC 29212 +9 ([1]; time 7 h): 0.8266 and 0.8438 and 0.8065 | growth curve reading, ATCC 29212 +9 ([1]; time 8 h): 0.8109 and 0.8262 and 0.7852 | growth curve reading, ATCC 29212 +9 ([1]; time 8.5 h): 0.7898 and 0.8142 and 0.7555 | growth curve reading, ATCC 29212 +9 ([1]; time 9 h): 0.756 and 0.7924 and 0.7138 | growth curve reading, ATCC 29212 +9 ([1]; time 9.5 h): 0.7216 and 0.7609 and 0.6743 | growth curve reading, ATCC 29212 +9 ([1]; time 10 h): 0.6983 and 0.7557 and 0.6452 | growth curve reading, ATCC 29212 +9 ([1]; time 10.5 h): 0.6599 and 0.7472 and 0.6197 | growth curve reading, ATCC 29212 +9 ([1]; time 11 h): 0.651 and 0.7261 and 0.5927 | growth curve reading, ATCC 29212 +9 ([1]; time 12 h): 0.5996 and 0.6855 and 0.5551 | growth curve reading, ATCC 29212 +9 ([1]; time 12.5 h): 0.6003 and 0.6798 and 0.5403 | growth curve reading, ATCC 29212 +9 ([1]; time 13 h): 0.594 and 0.6632 and 0.5265 | growth curve reading, ATCC 29212 +9 ([1]; time 13.5 h): 0.5622 and 0.6648 and 0.515 | growth curve reading, ATCC 29212 +9 ([1]; time 14 h): 0.5532 and 0.6505 and 0.5057 | growth curve reading, ATCC 29212 +9 ([1]; time 14.5 h): 0.547 and 0.6403 and 0.4947 | growth curve reading, ATCC 29212 +9 ([1]; time 15 h): 0.5331 and 0.6268 and 0.5432 | growth curve reading, ATCC 29212 +9 ([1]; time 15.5 h): 0.5632 and 0.6227 and 0.5048 | growth curve reading, ATCC 29212 +9 ([1]; time 16 h): 0.5401 and 0.6149 and 0.5008 | growth curve reading, ATCC 29212 +9 ([1]; time 16.5 h): 0.5274 and 0.6109 and 0.5013 | growth curve reading, ATCC 29212 +9 ([1]; time 17 h): 0.5274 and 0.5922 and 0.4935 | growth curve reading, ATCC 29212 +9 ([1]; time 17.5 h): 0.5197 and 0.5739 and 0.5382 | growth curve reading, ATCC 29212 +9 ([1]; time 18 h): 0.5155 and 0.5767 and 0.5324 | growth curve reading, pAM714 +9 ([1]; time 0 h): 0.0946 and 0.0915 and 0.093 | growth curve reading, pAM714 +9 ([1]; time 0.5 h): 0.0971 and 0.0931 and 0.0938 | growth curve reading, pAM714 +9 ([1]; time 1 h): 0.099 and 0.095 and 0.0956 | growth curve reading, pAM714 +9 ([1]; time 4 h): 0.1926 and 0.195 and 0.1996 | growth curve reading, pAM714 +9 ([1]; time 4.5 h): 0.2491 and 0.255 and 0.2626 | growth curve reading, pAM714 +9 ([1]; time 5 h): 0.3385 and 0.3521 and 0.3631 | growth curve reading, pAM714 +9 ([1]; time 6 h): 0.6065 and 0.6337 and 0.65 | growth curve reading, pAM714 +9 ([1]; time 6.5 h): 0.7256 and 0.7465 and 0.7496 | growth curve reading, pAM714 +9 ([1]; time 7 h): 0.7199 and 0.7425 and 0.7485 | growth curve reading, pAM714 +9 ([1]; time 8 h): 0.7208 and 0.7411 and 0.7548 | growth curve reading, pAM714 +9 ([1]; time 8.5 h): 0.7272 and 0.7466 and 0.7599 | growth curve reading, pAM714 +9 ([1]; time 9 h): 0.7255 and 0.7488 and 0.7571 | growth curve reading, pAM714 +9 ([1]; time 9.5 h): 0.7184 and 0.7445 and 0.7497 | growth curve reading, pAM714 +9 ([1]; time 10 h): 0.708 and 0.736 and 0.7402 | growth curve reading, pAM714 +9 ([1]; time 10.5 h): 0.6972 and 0.7258 and 0.7305 | growth curve reading, pAM714 +9 ([1]; time 11 h): 0.6856 and 0.717 and 0.7218 | growth curve reading, pAM714 +9 ([1]; time 12 h): 0.6642 and 0.6996 and 0.7054 | growth curve reading, pAM714 +9 ([1]; time 12.5 h): 0.6586 and 0.6909 and 0.6988 | growth curve reading, pAM714 +9 ([1]; time 13 h): 0.6446 and 0.6836 and 0.6924 | growth curve reading, pAM714 +9 ([1]; time 13.5 h): 0.6425 and 0.6781 and 0.6878 | growth curve reading, pAM714 +9 ([1]; time 14 h): 0.6308 and 0.6721 and 0.6814 | growth curve reading, pAM714 +9 ([1]; time 14.5 h): 0.6266 and 0.6677 and 0.6764 | growth curve reading, pAM714 +9 ([1]; time 15 h): 0.6144 and 0.6613 and 0.6745 | growth curve reading, pAM714 +9 ([1]; time 15.5 h): 0.6099 and 0.6586 and 0.6678 | growth curve reading, pAM714 +9 ([1]; time 16 h): 0.6043 and 0.6548 and 0.6659 | growth curve reading, pAM714 +9 ([1]; time 16.5 h): 0.6012 and 0.6523 and 0.6623 | growth curve reading, pAM714 +9 ([1]; time 17 h): 0.5956 and 0.6495 and 0.6597 | growth curve reading, pAM714 +9 ([1]; time 17.5 h): 0.5906 and 0.6489 and 0.6599 | growth curve reading, pAM714 +9 ([1]; time 18 h): 0.5896 and 0.647 and 0.6581 | stability in human serum [2]: relatively good stability
